{"source": "paper PMC6756013", "about": "“B591, a novel specific pan-PI3K inhibitor, preferentially targets cancer stem cells” (Oncogene, 2019)", "key": {"[1]": {"target": "T1, EGFR (ErbB1) (Homo sapiens, UniProt P00533)", "T1 construct": "purchased Life Technologies", "assay": "Biochemical kinase profiling (Life Technologies)", "protocol": "(§1) Purified PI3K Class I Lipid Kinase, including p110α/p85α, p110β/p85α, p110γ, and p110δ/p85α (Promega, Madison, WI, USA), was respectively incubated with B591 for 30 min at room temperature. The activity of PI3K was evaluated using a PI3-Kinase Activity ELISA kit (K-1000s, Echelon, Salt Lake City, UT, USA) according to the manufacture’s instructions. The assay is a competitive ELISA in which the signal is inversely proportional to the amount of PI(3,4,5)P3 produced. After the PI3-Kinase reactions are complete, reaction products are first mixed and incubated with a PI(3,4,5)P3 detector protein, then added to the PI(3,4,5)P3-coated microplate for competitive binding. A peroxidase-linked secondary detector and colorimetric detection is used to detect PI(3,4,5)P3 detector binding to the plate. The colorimetric signal is inversely proportional to the amount of PI(3,4,5)P3 produced by PI3-Kinase. The absorbance was measured at 450 nm with a Multilabel Reader (PerkinElmer, Waltham, MA, USA). ATP competition assays were executed with varying concentrations of ATP, and five concentrations of ATP were 5 μM, 25 μM, 50 μM, 100 μM, and 200 μM respectively. The IC50 values for inhibition of PI3Kβ by B591 were determined at indicated concentrations of ATP. In addition, B591 selectivity was tested against 39 kinases at Life Technologies."}, "[2]": {"target": "GSK3A (GSK3 alpha) (Homo sapiens, UniProt P49840)", "assay": "Biochemical kinase profiling (Life Technologies)", "protocol": "as §1"}, "[3]": {"target": "SYK (Homo sapiens, UniProt P43405)", "assay": "Biochemical kinase profiling (Life Technologies)", "protocol": "as §1"}, "[4]": {"target": "T2, EPHA2 (Homo sapiens, UniProt P29317)", "T2 construct": "purchased Life Technologies", "assay": "Biochemical kinase profiling (Life Technologies)", "protocol": "as §1"}, "[5]": {"target": "GSK3B (GSK3 beta) (Homo sapiens, UniProt P49841)", "assay": "Biochemical kinase profiling (Life Technologies)", "protocol": "as §1"}, "[6]": {"target": "T3, SRC (Homo sapiens, UniProt P12931)", "T3 construct": "purchased Life Technologies", "assay": "Biochemical kinase profiling (Life Technologies)", "protocol": "as §1"}, "[7]": {"target": "LYN A (Homo sapiens, UniProt P07948)", "assay": "Biochemical kinase profiling (Life Technologies)", "protocol": "as §1"}, "[8]": {"target": "AKT2 (PKB beta) (Homo sapiens, UniProt P31751)", "assay": "Biochemical kinase profiling (Life Technologies)", "protocol": "as §1"}, "[9]": {"target": "PIK3C2A (PI3K-C2 alpha) (Homo sapiens, UniProt O00443)", "assay": "Biochemical kinase profiling (Life Technologies)", "protocol": "as §1"}, "[10]": {"target": "FRAP1 (mTOR) (Homo sapiens, UniProt P42345)", "assay": "Biochemical kinase profiling (Life Technologies)", "protocol": "as §1"}, "[11]": {"target": "AMPK A1/B1/G1 (Homo sapiens, UniProt P54619+Q13131+Q9Y478)", "assay": "Biochemical kinase profiling (Life Technologies)", "protocol": "as §1"}, "[12]": {"target": "IGF1R (Homo sapiens, UniProt P08069)", "assay": "Biochemical kinase profiling (Life Technologies)", "protocol": "as §1"}, "[13]": {"target": "PRKCQ (PKC theta) (Homo sapiens, UniProt Q04759)", "assay": "Biochemical kinase profiling (Life Technologies)", "protocol": "as §1"}, "[14]": {"target": "AMPK A2/B1/G1 (Homo sapiens, UniProt P54619+P54646+Q9Y478)", "assay": "Biochemical kinase profiling (Life Technologies)", "protocol": "as §1"}, "[15]": {"target": "T4, EPHA1 (Homo sapiens, UniProt P21709)", "T4 construct": "purchased Life Technologies", "assay": "Biochemical kinase profiling (Life Technologies)", "protocol": "as §1"}, "[16]": {"target": "T5, EPHB1 (Homo sapiens, UniProt P54762)", "T5 construct": "purchased Life Technologies", "assay": "Biochemical kinase profiling (Life Technologies)", "protocol": "as §1"}, "[17]": {"target": "AKT3 (PKB gamma) (Homo sapiens, UniProt Q9Y243)", "assay": "Biochemical kinase profiling (Life Technologies)", "protocol": "as §1"}, "[18]": {"target": "T6, ERBB2 (HER2) (Homo sapiens, UniProt P04626)", "T6 construct": "purchased Life Technologies", "assay": "Biochemical kinase profiling (Life Technologies)", "protocol": "as §1"}, "[19]": {"target": "T7, FGFR3 (Homo sapiens, UniProt P22607)", "T7 construct": "purchased Life Technologies", "assay": "Biochemical kinase profiling (Life Technologies)", "protocol": "as §1"}, "[20]": {"target": "T8, PDGFRA (PDGFR alpha) (Homo sapiens, UniProt P16234)", "T8 construct": "purchased Life Technologies", "assay": "Biochemical kinase profiling (Life Technologies)", "protocol": "as §1"}, "[21]": {"target": "T9, KDR (VEGFR2) (Homo sapiens, UniProt P35968)", "T9 construct": "purchased Life Technologies", "assay": "Biochemical kinase profiling (Life Technologies)", "protocol": "as §1"}, "[22]": {"target": "T10, FLT1 (VEGFR1) (Homo sapiens, UniProt P17948)", "T10 construct": "purchased Life Technologies", "assay": "Biochemical kinase profiling (Life Technologies)", "protocol": "as §1"}, "[23]": {"target": "PTK2 (FAK) (Homo sapiens, UniProt Q05397)", "assay": "Biochemical kinase profiling (Life Technologies)", "protocol": "as §1"}, "[24]": {"target": "T11, PRKCZ (PKC zeta) (Homo sapiens, UniProt Q05513)", "T11 construct": "purchased Life Technologies", "assay": "Biochemical kinase profiling (Life Technologies)", "protocol": "as §1"}, "[25]": {"target": "FYN (Homo sapiens, UniProt P06241)", "assay": "Biochemical kinase profiling (Life Technologies)", "protocol": "as §1"}, "[26]": {"target": "PDK1 (Homo sapiens, UniProt O15530)", "assay": "Biochemical kinase profiling (Life Technologies)", "protocol": "as §1"}, "[27]": {"target": "PIK3C3 (hVPS34) (Homo sapiens, UniProt Q8NEB9)", "sequence (Q8NEB9 whole entry)": "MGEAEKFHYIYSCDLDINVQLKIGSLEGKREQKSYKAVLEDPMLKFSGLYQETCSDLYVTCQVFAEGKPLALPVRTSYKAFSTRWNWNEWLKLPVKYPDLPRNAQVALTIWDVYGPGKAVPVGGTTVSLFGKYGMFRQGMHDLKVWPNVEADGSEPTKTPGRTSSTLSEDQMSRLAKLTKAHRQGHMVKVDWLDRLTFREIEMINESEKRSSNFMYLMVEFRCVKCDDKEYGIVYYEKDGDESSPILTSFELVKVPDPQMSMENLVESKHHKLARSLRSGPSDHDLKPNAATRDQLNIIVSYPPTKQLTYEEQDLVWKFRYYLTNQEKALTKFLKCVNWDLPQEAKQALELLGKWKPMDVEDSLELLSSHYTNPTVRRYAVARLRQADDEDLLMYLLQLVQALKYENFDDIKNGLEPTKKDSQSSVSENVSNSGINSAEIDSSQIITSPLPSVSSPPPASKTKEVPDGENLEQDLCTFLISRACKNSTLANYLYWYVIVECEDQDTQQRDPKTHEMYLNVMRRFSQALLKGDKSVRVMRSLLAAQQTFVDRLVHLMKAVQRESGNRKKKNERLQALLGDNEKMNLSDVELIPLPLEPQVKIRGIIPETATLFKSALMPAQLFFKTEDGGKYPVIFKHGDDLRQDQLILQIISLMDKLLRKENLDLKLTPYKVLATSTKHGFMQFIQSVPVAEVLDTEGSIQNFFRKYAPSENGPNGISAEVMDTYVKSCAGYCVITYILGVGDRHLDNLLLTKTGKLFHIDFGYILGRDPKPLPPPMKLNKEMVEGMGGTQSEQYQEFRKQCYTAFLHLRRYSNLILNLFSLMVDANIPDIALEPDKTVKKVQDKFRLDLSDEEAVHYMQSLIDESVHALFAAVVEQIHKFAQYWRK", "assay": "Biochemical kinase profiling (Life Technologies)", "protocol": "as §1"}, "[28]": {"target": "PIK3C2B (PI3K-C2 beta) (Homo sapiens, UniProt O00750)", "sequence (O00750 whole entry)": "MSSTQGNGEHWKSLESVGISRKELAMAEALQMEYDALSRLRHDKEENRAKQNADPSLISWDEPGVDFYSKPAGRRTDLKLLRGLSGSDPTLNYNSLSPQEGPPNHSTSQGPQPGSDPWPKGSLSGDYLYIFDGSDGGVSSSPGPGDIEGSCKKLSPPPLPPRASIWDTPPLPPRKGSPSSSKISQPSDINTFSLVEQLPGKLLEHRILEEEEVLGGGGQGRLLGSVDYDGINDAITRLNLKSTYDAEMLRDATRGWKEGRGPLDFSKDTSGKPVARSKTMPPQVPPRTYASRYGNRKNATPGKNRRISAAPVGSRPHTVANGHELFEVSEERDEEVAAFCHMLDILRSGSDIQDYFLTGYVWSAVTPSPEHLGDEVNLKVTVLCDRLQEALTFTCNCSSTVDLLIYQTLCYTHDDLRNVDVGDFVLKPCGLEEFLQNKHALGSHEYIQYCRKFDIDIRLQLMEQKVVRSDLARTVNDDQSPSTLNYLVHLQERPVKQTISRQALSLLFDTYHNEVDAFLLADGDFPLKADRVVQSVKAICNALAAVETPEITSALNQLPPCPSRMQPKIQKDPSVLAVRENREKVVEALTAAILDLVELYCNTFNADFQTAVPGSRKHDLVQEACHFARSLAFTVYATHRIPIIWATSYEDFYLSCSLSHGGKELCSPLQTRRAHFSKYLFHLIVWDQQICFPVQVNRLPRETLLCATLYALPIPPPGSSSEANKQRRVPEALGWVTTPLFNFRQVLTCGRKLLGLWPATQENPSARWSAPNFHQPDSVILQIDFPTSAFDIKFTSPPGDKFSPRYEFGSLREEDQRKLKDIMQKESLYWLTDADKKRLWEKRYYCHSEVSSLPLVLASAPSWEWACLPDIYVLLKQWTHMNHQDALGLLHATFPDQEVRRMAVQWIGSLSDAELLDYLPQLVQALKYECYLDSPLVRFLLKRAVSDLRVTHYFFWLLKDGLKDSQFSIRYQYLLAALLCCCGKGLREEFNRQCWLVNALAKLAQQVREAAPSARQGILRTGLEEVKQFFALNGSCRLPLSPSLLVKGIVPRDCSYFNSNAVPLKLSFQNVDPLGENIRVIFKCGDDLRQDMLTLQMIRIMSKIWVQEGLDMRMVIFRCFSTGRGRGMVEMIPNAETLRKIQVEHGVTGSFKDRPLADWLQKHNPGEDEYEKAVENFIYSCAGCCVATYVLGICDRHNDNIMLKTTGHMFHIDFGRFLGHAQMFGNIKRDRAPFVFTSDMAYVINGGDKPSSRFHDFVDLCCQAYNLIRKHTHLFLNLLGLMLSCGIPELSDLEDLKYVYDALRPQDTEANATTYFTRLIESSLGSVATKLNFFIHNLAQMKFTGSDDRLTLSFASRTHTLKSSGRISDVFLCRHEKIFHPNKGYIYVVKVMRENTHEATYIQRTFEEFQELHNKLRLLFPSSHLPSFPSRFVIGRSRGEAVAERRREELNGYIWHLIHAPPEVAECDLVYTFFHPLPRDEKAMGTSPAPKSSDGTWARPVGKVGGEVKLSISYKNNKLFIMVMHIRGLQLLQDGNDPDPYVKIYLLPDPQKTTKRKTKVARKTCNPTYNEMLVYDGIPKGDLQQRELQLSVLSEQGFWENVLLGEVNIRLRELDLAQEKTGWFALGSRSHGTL", "assay": "Biochemical kinase profiling (Life Technologies)", "protocol": "as §1"}, "[29]": {"target": "T12, FGFR4 (Homo sapiens, UniProt P22455)", "T12 construct": "purchased Life Technologies", "T12 sequence (P22455 22-802)": "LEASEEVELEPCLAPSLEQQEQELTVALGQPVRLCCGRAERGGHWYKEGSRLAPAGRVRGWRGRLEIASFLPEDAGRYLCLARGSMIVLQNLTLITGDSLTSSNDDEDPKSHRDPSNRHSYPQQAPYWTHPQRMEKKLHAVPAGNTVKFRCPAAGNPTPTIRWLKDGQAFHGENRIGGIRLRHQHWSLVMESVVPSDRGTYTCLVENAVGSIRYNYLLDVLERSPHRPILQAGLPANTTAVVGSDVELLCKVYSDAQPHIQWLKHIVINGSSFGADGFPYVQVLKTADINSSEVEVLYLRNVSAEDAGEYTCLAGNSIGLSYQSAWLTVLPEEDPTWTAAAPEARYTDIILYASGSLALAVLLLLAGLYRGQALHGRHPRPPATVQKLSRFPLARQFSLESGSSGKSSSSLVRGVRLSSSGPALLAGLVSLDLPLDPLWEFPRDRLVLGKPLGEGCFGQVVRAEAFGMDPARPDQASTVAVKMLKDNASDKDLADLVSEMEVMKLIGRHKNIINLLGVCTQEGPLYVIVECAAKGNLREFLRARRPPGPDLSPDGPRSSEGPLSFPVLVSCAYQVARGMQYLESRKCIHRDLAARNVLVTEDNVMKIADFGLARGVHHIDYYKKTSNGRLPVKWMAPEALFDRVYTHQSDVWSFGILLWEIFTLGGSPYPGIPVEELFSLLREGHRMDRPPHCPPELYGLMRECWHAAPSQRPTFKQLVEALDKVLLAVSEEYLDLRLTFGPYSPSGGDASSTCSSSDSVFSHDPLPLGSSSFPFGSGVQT", "assay": "Biochemical kinase profiling (Life Technologies)", "protocol": "as §1"}, "[30]": {"target": "T13, FGFR1 (Homo sapiens, UniProt P11362)", "T13 construct": "purchased Life Technologies", "assay": "Biochemical kinase profiling (Life Technologies)", "protocol": "as §1"}, "[31]": {"target": "T14, PI3Kδ (p110δ/p85α) (Homo sapiens, UniProt O00329)", "T14 construct": "purchased Promega", "assay": "In vitro PI3K kinase assay (PI3-Kinase Activity ELISA)", "format": "biochemical", "details": "incubated 30 min at room temperature", "protocol": "as §1"}, "[32]": {"target": "T15, PI3Kα (p110α/p85α) (Homo sapiens, UniProt P42336)", "T15 construct": "purchased Promega", "assay": "In vitro PI3K kinase assay (PI3-Kinase Activity ELISA)", "format": "biochemical", "details": "incubated 30 min at room temperature", "protocol": "as §1"}, "[33]": {"target": "T16, PI3Kβ (p110β/p85α) (Homo sapiens, UniProt P42338)", "T16 construct": "purchased Promega", "T16 sequence (P42338 whole entry)": "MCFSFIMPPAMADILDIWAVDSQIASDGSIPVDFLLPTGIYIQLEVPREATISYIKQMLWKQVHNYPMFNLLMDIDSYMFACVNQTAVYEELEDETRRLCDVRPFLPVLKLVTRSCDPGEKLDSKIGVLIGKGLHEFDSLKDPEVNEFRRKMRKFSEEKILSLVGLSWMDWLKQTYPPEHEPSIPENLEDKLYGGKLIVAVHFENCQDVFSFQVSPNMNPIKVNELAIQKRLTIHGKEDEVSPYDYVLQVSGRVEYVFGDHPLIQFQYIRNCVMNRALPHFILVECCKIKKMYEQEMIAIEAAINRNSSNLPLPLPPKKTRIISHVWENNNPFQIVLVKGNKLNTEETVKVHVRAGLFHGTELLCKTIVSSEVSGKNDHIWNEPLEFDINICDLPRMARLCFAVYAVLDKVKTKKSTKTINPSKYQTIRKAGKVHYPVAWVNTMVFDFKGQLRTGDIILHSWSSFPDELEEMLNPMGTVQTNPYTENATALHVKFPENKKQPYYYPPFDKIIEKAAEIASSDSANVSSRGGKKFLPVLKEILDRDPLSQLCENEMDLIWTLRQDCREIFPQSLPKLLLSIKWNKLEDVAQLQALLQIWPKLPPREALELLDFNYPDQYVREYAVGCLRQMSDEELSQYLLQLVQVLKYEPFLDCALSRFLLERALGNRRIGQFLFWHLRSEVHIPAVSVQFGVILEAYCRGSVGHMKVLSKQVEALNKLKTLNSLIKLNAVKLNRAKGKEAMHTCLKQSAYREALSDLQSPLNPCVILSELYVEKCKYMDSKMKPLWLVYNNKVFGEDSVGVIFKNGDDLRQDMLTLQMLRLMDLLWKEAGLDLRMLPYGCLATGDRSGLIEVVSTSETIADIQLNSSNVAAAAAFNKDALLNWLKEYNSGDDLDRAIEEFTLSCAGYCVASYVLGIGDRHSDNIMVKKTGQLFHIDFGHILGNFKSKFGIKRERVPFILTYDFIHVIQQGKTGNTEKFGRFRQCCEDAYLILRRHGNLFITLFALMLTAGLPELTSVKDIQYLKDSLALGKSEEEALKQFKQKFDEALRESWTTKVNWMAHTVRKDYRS", "T16 sequence (P27986 whole entry partner)": "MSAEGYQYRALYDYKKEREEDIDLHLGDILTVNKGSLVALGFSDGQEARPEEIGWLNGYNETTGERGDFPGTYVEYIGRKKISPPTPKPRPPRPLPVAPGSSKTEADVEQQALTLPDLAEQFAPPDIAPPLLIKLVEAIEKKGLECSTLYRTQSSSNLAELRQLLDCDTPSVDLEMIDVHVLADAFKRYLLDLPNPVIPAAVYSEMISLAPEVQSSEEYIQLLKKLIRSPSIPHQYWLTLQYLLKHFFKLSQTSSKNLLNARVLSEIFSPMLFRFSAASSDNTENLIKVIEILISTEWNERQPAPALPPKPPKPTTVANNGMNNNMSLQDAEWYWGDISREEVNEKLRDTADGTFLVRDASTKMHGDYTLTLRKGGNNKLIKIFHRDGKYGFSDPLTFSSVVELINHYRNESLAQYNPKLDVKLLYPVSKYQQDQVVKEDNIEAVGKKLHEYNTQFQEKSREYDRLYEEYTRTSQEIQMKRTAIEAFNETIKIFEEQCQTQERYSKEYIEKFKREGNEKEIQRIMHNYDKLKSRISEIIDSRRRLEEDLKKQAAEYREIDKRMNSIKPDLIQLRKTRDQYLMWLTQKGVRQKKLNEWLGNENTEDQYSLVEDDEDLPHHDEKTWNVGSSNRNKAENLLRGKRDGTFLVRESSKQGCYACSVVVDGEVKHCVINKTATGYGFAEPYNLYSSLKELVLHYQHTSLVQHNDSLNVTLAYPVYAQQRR", "assay": "In vitro PI3K kinase assay (PI3-Kinase Activity ELISA)", "format": "biochemical", "protocol": "as §1"}}, "data": [{"smiles": "Cc1cc2c(cc1C)[n+](Cc1ccccc1Br)cn2Cc1ccc2c(c1)CCO2.[Br-]", "note": "[B591, 3-(2-bromobenzyl)-1-((2,3-dihydrobenzofuran-5-yl)methyl) -5,6-dimethyl-1H-benzo[d]imidazol-3-ium bromide]", "values": [{"measurement": "IC50", "setting": "[1]", "result": "> 500", "unit": "µM"}, {"measurement": "IC50", "setting": "[2]", "result": "> 500", "unit": "µM"}, {"measurement": "IC50", "setting": "[3]", "result": "> 500", "unit": "µM"}, {"measurement": "IC50", "setting": "[4]", "result": "> 500", "unit": "µM"}, {"measurement": "IC50", "setting": "[5]", "result": "> 500", "unit": "µM"}, {"measurement": "IC50", "setting": "[6]", "result": "> 500", "unit": "µM"}, {"measurement": "IC50", "setting": "[7]", "result": "> 500", "unit": "µM"}, {"measurement": "IC50", "setting": "[8]", "result": "> 500", "unit": "µM"}, {"measurement": "IC50", "setting": "[9]", "result": 177, "unit": "µM"}, {"measurement": "IC50", "setting": "[10]", "result": "> 500", "unit": "µM"}, {"measurement": "IC50", "setting": "[11]", "result": "> 500", "unit": "µM"}, {"measurement": "IC50", "setting": "[12]", "result": "> 500", "unit": "µM"}, {"measurement": "IC50", "setting": "[13]", "result": "> 500", "unit": "µM"}, {"measurement": "IC50", "setting": "[14]", "result": "> 500", "unit": "µM"}, {"measurement": "IC50", "setting": "[15]", "result": "> 500", "unit": "µM"}, {"measurement": "IC50", "setting": "[16]", "result": "> 500", "unit": "µM"}, {"measurement": "IC50", "setting": "[17]", "result": "> 500", "unit": "µM"}, {"measurement": "IC50", "setting": "[18]", "result": "> 500", "unit": "µM"}, {"measurement": "IC50", "setting": "[19]", "result": "> 500", "unit": "µM"}, {"measurement": "IC50", "setting": "[20]", "result": "> 500", "unit": "µM"}, {"measurement": "IC50", "setting": "[21]", "result": "> 500", "unit": "µM"}, {"measurement": "IC50", "setting": "[22]", "result": "> 500", "unit": "µM"}, {"measurement": "IC50", "setting": "[23]", "result": "> 500", "unit": "µM"}, {"measurement": "IC50", "setting": "[24]", "result": "> 500", "unit": "µM"}, {"measurement": "IC50", "setting": "[25]", "result": "> 500", "unit": "µM"}, {"measurement": "IC50", "setting": "[26]", "result": "> 500", "unit": "µM"}, {"measurement": "IC50", "setting": "[27]", "result": 102, "unit": "µM"}, {"measurement": "IC50", "setting": "[28]", "result": 91, "unit": "µM"}, {"measurement": "IC50", "setting": "[29]", "result": "> 500", "unit": "µM"}, {"measurement": "IC50", "setting": "[30]", "result": "> 500", "unit": "µM"}, {"measurement": "IC50", "setting": "[31]", "result": "1.58 ± 0.16", "unit": "µM"}, {"measurement": "IC50", "setting": "[32]", "result": "1.3 ± 0.27", "unit": "µM"}, {"measurement": "Mode of inhibition (IC50 for PI3Kβ at various concentrations of ATP)", "setting": "[33]; ATP 5, 25, 50, 100 and 200 μM", "result": "ATP-competitive inhibitor"}, {"measurement": "IC50", "setting": "[33]; PI3-Kinase Activity ELISA, incubated 30 min at room temperature", "result": "0.364 ± 0.13", "unit": "µM"}]}]}
